Results reported in patent publication US8623924B2, “Compositions and methods for modulating metabolic pathways” (Nusirt Sciences, Inc., priority 2011, dated 2014).
“Also recorded” adds a separate entry of the source.

Legend:
Adipocytes (3T3-L1) = assay: Fatty acid oxidation (3H-palmitate) in 3T3-L1 adipocytes; assay type: cell-based; conditions: high (25 mM) glucose, 4 hours; leucine 0.5 mM, HMB 5 uM, resveratrol 200 nM; vs. control
Method: High glucose medium reduced fatty acid oxidation by 46% (p<0.05).
Fatty acid oxidation was measured using ^3H-labeled palmitate oxidation, with the ^3H label trapped as water as a result of the fat oxidation. The ^3H was then measured via scintillation counter.

C-reactive protein = assay: Inflammatory biomarker C-reactive protein in diet-induced obese mice; assay type: in vivo; conditions: 6 weeks on diet, low resveratrol 12.5 mg/kg diet, low HMB 2 g CaHMB/kg diet, high HMB 10 g CaHMB/kg diet, leucine 2.42% of diet
Sirt3 = molecular target: T1, Sirt3 (Mus musculus, UniProt Q8R104); assay: Sirt3 activity in mitochondrial protein of treated 3T3-L1 adipocytes; assay type: cell-based; conditions: 4 hours, leucine 0.5 mM, HMB 5 uM, resveratrol 200 nM
T1 construct: endogenous in cells; host or cells: 3T3-L1 adipocytes (mitochondrial protein)
T1 sequence (Q8R104 1-334): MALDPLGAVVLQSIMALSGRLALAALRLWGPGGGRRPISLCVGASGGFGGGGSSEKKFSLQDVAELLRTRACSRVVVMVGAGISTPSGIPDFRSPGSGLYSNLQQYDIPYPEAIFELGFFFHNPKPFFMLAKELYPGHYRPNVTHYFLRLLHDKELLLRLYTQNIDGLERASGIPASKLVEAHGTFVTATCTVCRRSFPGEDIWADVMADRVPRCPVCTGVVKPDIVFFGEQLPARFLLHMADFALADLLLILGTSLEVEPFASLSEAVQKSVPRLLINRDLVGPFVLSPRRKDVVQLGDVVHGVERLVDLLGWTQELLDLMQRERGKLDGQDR

[1] = system: PGC-1α, NRF-1 and UCP3 genes; assay: Expression of mitochondrial regulatory and component genes; assay type: cell-based
SIRT1 [2] = molecular target: T2, SIRT1 (Homo sapiens, UniProt Q96EB6); assay: SIRT1 activity, cell-free fluorimetric deacetylation assay; assay type: biochemical; conditions: cell-free system
T2 construct: purchased ENZO Life Sciences International, Inc. BML-AK555
T2 sequence (Q96EB6 1-747): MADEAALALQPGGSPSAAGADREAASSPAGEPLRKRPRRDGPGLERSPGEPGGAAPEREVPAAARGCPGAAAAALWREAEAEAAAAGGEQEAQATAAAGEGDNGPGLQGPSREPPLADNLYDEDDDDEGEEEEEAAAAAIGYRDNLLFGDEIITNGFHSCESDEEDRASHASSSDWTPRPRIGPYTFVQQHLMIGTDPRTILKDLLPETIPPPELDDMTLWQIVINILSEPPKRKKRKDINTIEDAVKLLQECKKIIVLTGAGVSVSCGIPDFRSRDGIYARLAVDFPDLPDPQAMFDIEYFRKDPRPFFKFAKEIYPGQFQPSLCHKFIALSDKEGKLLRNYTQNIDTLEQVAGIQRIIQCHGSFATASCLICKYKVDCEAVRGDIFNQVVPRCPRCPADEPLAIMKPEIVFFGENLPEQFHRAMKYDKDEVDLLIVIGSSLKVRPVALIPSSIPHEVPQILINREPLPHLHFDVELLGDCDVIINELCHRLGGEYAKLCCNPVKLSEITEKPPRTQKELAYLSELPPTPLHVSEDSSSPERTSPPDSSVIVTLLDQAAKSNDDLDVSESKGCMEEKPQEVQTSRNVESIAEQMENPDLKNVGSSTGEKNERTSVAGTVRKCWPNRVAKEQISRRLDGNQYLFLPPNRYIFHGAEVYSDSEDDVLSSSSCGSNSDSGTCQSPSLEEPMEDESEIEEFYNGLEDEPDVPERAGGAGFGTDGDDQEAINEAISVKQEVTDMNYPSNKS
Method: SIRT1 activity was measured by using the SIRT1 Fluorimetric Drug Discovery Kit (BML-AK555, ENZO Life Sciences International, Inc. PA, USA). In this assay, SIRT1 activity is assessed by the degree of deacetylation of a standardized substrate containing an acetylated lysine side chain. The substrate utilized is a peptide containing amino acids 379-382 of human p53 (Arg-His-Lys-Lys[Ac]), an established target of SIRT1 activity; SIRT1 activity is directly proportional to the degree of deacetylation of Lys-382. Samples were incubated with peptide substrate (25 μM), and NAD^+ (500 μM) in a phosphate-buffered saline solution at 37° C. on a horizontal shaker for 45 minutes. The reaction was stopped with the addition of 2 mM nicotinamide and a developing solution that binds to the deacetylated lysine to form a fluorophore. Following 10 minutes incubation at 37° C., fluorescence was read in a plate-reading fluorometer at an excitation wavelength of 360 nm and an emission wavelength of 450 nm. […] A standard curve was constructed using deacetylated substrate (0-10 μM).

Sirt1 [3] = molecular target: T3, Sirt1 (Mus musculus, UniProt Q923E4); assay: Adipose tissue Sirt1 activity in diet-induced obese mice; assay type: in vivo; conditions: low dose of resveratrol, HMB, or their combinations with HMB or leucine (FIG. 10)
T3 construct: from tissue; host or cells: adipose tissue of c57/BL6 mice
T3 sequence (Q923E4 1-737): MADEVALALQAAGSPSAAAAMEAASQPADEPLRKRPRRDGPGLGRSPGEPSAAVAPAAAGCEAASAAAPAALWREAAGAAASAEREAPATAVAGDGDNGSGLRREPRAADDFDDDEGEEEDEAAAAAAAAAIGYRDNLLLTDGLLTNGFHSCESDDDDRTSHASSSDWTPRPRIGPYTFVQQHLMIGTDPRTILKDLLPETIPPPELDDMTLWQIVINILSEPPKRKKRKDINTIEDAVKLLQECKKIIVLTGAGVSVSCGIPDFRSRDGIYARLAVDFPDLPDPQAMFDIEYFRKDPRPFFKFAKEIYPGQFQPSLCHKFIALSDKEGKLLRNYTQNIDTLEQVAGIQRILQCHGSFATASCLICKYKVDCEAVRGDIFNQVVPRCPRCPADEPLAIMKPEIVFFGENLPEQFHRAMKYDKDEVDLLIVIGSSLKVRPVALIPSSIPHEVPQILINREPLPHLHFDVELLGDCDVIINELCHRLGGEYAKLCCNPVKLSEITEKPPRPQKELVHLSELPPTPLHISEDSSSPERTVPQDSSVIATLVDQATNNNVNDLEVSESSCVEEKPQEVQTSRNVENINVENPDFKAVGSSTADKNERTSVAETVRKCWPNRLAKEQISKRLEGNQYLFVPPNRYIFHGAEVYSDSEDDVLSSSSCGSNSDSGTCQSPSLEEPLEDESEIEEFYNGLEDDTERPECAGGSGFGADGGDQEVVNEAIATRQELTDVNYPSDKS

[4] = system: myotube mitochondrial biogenesis; assay: Myotube mitochondrial biogenesis (NAO binding), Example 1; assay type: cell-based; conditions: assessed fluorometrically via NAO binding
Method: We next investigated the role of intact leucine (0-0.5 mM) vs. its metabolites, α-ketoisocaproic acid (KIC) (0-0.5 mM) and HMB (0-50 μM). […] Both leucine and HMB increased myotube mitochondrial biogenesis (assessed fluorometrically via NAO binding) by ˜50%, (p<0.005, FIG. 3).

## CC(C)(O)CC(=O)O [HMB]
Adipocytes (3T3-L1)
  increase in fatty acid oxidation, high glucose: 29%
C-reactive protein
  C-reactive protein: 98.6 ± 5.1 ng/mL
Sirt3
  increase in Sirt3 activity: no significant independent effect; also recorded: no independent effects
[1]
  expression of mitochondrial regulatory (PGC-1α and NRF-1) and component (UCP3) genes: stimulated expression
SIRT1 [2]
  SIRT1 activity: significantly increased SIRT1 activity
Sirt1 [3]
  adipose tissue Sirt1 activity: Neither resveratrol nor HMB exerted significant independent effects
[4]
  increase in myotube mitochondrial biogenesis: ~50%
